Marks after values point to notes of the source that are not given here.
What was measured:
[1] = biological target: T1, human histamine H1-receptor (Homo sapiens, UniProt P35367); assay: Radioligand binding, histamine H1-receptor, competitive inhibition of [3H]Pyrilamine; details: CHO-cells transfected with the human histamine H1-receptor, read-out: H1-antagonist activity (pIC50) (converted)
T1 construct: expressed in transfected cells; host or cells: CHO cells
Protocol: Competitive inhibition of [^3H] […] Incubation was done during 150 min at 22° C.

[2] = system: Sprague-Dawley rats with closed head injury; assay: Closed Head Injury (CHI) model, severe head injury
Description: A clinically relevant rat model for traumatic brain injury was used to test the compounds according to the invention and the commercially available compounds. […] Trauma was induced in intubated, isoflurane anesthetized (1.5% isoflurane in a mixture of 30% O2 and 70% N2O) Sprague-Dawley rats (380-400 g) stereotaxically positioned on a table mounted on 4 springs. A 400 g steel cylinder, protected with a 9 mm diameter silicon disc, was dropped on the unprotected skull from a height of either 70 cm or 50 cm (respectively ‘severe’ and ‘moderate’ head injury). The impact area was centered between bregma and lamda. ICP was recorded using a Codman microsensor probe inserted in the parietal cortex. […] The severe head injury mode was used for the evaluation of pharmacological effects immediately after trauma (screening procedure). […] In pharmacological studies, animals with a pathological ICP between 12.5 and 35 mm Hg were included. The changes in ICP, mean arterial blood pressure (MABP) and cerebral perfusion pressure CPP (=MABP—CPP) were expressed as percentage of the initial value at onset of the treatment.
On a weekly base, 4 treated groups of 3 rats were compared with 3 saline treated animals. Since conventional statistical methods require a larger amount of animals, a sequential procedure was used. Sequential methods operate in different stages. At each stage, a group of animals was selected as homogeneous as possible. Animals were randomly allocated to either drugs or saline. […] Given the biological relevant level of activity that must be detected, the expected fraction of false positive and negative results was known and fixed. A sequential two-sample grouped rank test was used.
Treatment was started at 20 min after severe head injury and involved administering a dose of 0.5 mg/kg/min during 10 minutes, followed by 0.1 mg/kg/min during 50 min.
Ranitidine was infused for 6 min at a dose of 2 mg/kg/min in the rat CHI-model after inflicting severe head injury. Solvent (NaCl+H2T) was given at the same rate. In each group, 6 rats were treated. […] The percentage of reduction are calculated as % change of the ICP recorded at the onset of the treatment and at the end of the infusion.
A number of commercially available H1- and H2-antagonists was infused for 10 min at a dose of 0.5 mg/kg/min in the rat CHI-model after inflicting severe head injury. Solvent (NaCl+H2T) was given at the same rate. In each group, 6 rats were treated.

[3] = system: rabbits with cortical cold lesion; assay: Cold lesion-induced rise of ICP in rabbits; assay type: in vivo, rabbit; details: 2 mg/kg/min for 10 min, one day after cryo-lesion
Protocol: Cryo-lesions were induced in adult rabbits to obtain a pathological ICP that is caused by tissue oedema. A 8 mm stainless steel rod was placed at predetermined coordinates on the exposed skull of deeply anaesthetised rabbits and cooled for 10 min with liquid nitrogen. One day later the animals were re-anaesthetised and ICP and blood pressure continuously recorded as described for the rat. After a stabilisation period of 15 min, Compound 1 was infused for 10 min at a dose of 2 mg/kg/min. Solvent (preclinical formulation containing 10% HP-β-CD, pH 4) was given for 10 min at a rate of 2 ml/min.

histamine H2-receptor = biological target: T2, histamine H2-receptor (Cavia porcellus, UniProt P47747); assay: Radioligand binding, histamine H2-receptor, guinea pig striatum cells, [125I]APT; details: [125I]APT 0.1 nM, 150 min at 22° C., read-out: H2-antagonist activity (pIC50) (converted)
T2 construct: using guinea pig striatum cells and [^125I]APT as the radioligand; from tissue; host or cells: guinea pig striatum
T2 sequence (P47747 whole entry): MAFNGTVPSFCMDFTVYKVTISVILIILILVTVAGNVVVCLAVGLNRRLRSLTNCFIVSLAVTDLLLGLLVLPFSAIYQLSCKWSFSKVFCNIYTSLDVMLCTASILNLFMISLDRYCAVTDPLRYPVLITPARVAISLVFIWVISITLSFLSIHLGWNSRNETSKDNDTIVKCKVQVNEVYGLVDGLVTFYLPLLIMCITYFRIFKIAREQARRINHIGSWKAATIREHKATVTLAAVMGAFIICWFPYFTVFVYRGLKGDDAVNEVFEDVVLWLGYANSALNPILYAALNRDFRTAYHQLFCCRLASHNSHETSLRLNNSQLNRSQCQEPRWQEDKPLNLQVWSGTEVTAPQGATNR

non-traumatised rats = assay: ICP and blood pressure in non-traumatized rats; assay type: in vivo, rat; details: i.v. 0.5 mg/kg/min 10 minutes, then 0.1 mg/kg/min 50 min; anaesthetised
Protocol: For comparison, two commercially available H2-agonists (dimaprit and impromidine) were also tested by infusion into non-traumatized rats, using a dose of 0.5 mg/kg/min for 10 minutes for dimaprit and increasing doses up to 3.75 mg/kg/hour for impromidine.
Rats The effect of Compound 2, Compound 1 and Racemate (comp. 1 and comp. 2) on ICP, MABP and CPP was tested in anaesthetised non-traumatised rats. […] Conclusion

[4] = system: Sprague-Dawley rats with closed head injury; assay: Closed Head Injury (CHI) model, moderate head injury, treatment 24 h after trauma; assay type: in vivo, rat; details: i.v. 0.5 mg/kg.min 10 min, then 0.1 mg/kg.min 45 min; 24 h after moderate head injury
Description: The impact area was centered between bregma and lamda.
Near-infrared spectroscopy (NIRS) of the rat brain ‘in vivo’ allows to quantify non-invasively saturation of brain haemoglobin with oxygen (HbSat) and total brain haemoglobin concentration ([HbTot]). The latter is a measure for cerebral blood volume (CBV). Changes in the redox state of the mitochondrial enzyme cytochrome oxidase (CytOx), an indicator for tissue oxygenation, can also be monitored.
HbSat is not affected by compound 1 and the racemate (Comp. 1 and Comp. 2).
The effects of treatment with Compound 2 (i.v. infusion at a dose of 0.1 mg/kg.min during 30 min) at 24 h after moderate trauma were studied using different anesthetics (isoflurane, chloralhydrate, pentobarbital). When chloralhydrate (400 mg/kg i.p) is used as anesthetic, ICP decreases to 75% of initial value and MABP gradually increases to 110% of initial value (medians, n=6). […] Barbiturates also reduce the ICP and an important additional effect can be obtained with the compound.

[5] = 0.5 mg/kg/min 10 min, then 0.1 mg/kg/min 50 min, start 20 min after severe CHI, n = 10
[6] = i.v. 1 mg/kg/min during 10 min, repeated, start 20 min after severe head injury

T1 sequence (P35367 whole entry): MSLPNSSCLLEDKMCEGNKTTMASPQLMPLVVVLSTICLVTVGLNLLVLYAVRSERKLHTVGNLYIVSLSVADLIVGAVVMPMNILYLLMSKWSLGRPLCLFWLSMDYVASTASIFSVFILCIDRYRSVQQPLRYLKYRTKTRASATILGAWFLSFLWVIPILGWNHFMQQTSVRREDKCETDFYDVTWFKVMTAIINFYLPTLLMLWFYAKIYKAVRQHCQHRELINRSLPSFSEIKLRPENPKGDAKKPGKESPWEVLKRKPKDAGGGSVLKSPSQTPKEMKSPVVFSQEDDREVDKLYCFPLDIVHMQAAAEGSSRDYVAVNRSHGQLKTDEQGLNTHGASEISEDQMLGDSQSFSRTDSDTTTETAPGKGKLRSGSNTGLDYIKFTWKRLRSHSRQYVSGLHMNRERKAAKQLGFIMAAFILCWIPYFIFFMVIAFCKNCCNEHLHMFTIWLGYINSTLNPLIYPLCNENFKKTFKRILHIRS

Cc1nc2n(C)c3ccccc3n2c(=O)c1CCN1CCC(C2c3ccccc3CCn3c2nc2ccccc23)CC1Cc1ccccc1 (single isomer, unassigned) [Compound 1, pyrimido[1,2-a]benzimidazol-4(10H)-one, 3-[2-[4-(11 ,12-dihydro-6H-benzimidazo[2,1-b][3]benzazepin-6-yl)-2-(phenylmethyl)-1-piperidinyl]ethyl]-2,10-dimethyl (E)-2-butenedioate (2:3) hydrate (1:1)]
IC50 [1]: 200 nM | CPP (%), average change over treatment period, median (95% C.I.) [2, 5]: −1.9 (−8.9; 0.4) % | ETCO2 (%), average change over treatment period, median (95% C.I.) [2, 5]: 2.2 (−0.8; 8.4) % | Heart rate(%), average change over treatment period, median (95% C.I.) [2, 5]: −4.1 (−11.4; 1.9) % | ICP (%), average change over treatment period, % change of initial value, median (95% C.I.) [2, 5]: −15.4 (−22.6; −11.5)* % | MABP (%), average change over treatment period, median (95% C.I.) [2, 5]: −3.6 (−11.9; −1.5) % | Resp. rate(%), average change over treatment period, median (95% C.I.) [2, 5]: 5.3 (−3.3; 13.6) % | effect on ICP during 10 min infusion (dose response) ([2]; 0.125, 0.25, 0.5, 1 and 2 mg/kg/min for 10 min): sustained dose-dependent decrease of ICP | effect on ICP in the 10 min period following the infusion ([2]; 0.125-2 mg/kg/min for 10 min): highly significant dose-dependent effect on ICP remains present | dose yielding a statistically significant larger reduction in ICP than solvent ([2]; 10 min infusion): ≥ 1 mg/kg/min | effect of repeated infusion on ICP [2, 6]: rapid reduction of ICP | effect of repeated infusion on blood pressure [2, 6]: Blood pressure drops during Compound 1 treatment but is restored again after this episode | ICP after termination of infusion [3]: significant ICP reduction | ICP during infusion [3]: no immediate decrease in ICP | blood pressure during infusion [3]: blood pressure drops | IC50 (histamine H2-receptor): 1000 nM | effect on ICP, MABP and CPP in non-traumatised rats (non-traumatised rats): comparable with those obtained in the traumatized animals | effect on saturation of brain haemoglobin with oxygen HbSat (NIRS) [4]: not affected | effect on the redox state of CytOx (NIRS) [4]: do not have an effect | effect on total brain haemoglobin concentration [HbTot] (NIRS) [4]: do not have a significant effect
